# Tests used:
# Assay type in all cases: in vivo
# [1] = tested on: tomato seedlings (WT, p1002 and p1003 lines); assay: Tomato seedling growth in the dark on 20 μM ACC with or without inducer; conditions: for Hypocotyls (mm) / Root (mm): 20 μM inducer, 20 μM ACC, 14 day old seedlings, dark
# Description: Seed from three homozygous independent p1002 and p1003 lines were germinated in the dark on 0.5× MS medium+1% sucrose containing 20 μM ACC, the precursor to ethylene. Germination on ACC inhibits tomato seedling growth. Seed from the same lines also was germinated in the presence of 20 μM ACC plus 20 μM inducer.
# [2] = tested on: Wild-type, ein2-5 and p1002 Arabidopsis transformant seedlings; assay: Triple response assay, Arabidopsis seedlings, root and hypocotyl growth with ethylene; conditions: for Roots (mm) Avg / Hypocotyls (mm) Avg: 11 days
# Description: A triple response assay (Guzman and Ecker, 1990 cited above, modified as described below) was used to determine the modulation of ethylene sensitivity in the transformed Arabidopsis plants of Example 4. Arabidopsis seed was surface-sterilized and imbibed in 20 μM inducer in the dark for 4 days at 4° C. The seed was plated on 0.5× MS with 1% sucrose and 20 μM inducer and for mutant receptors treated with 10 ppm ethylene or 1 ppm ethylene for wild-type receptors and grown in the dark for 4-8 days at 21° C. The response to ethylene was scored on the last day.
# Wild-type, ein2-5 (an ethylene insensitive mutant control), and p1002 Arabidopsis transformant seedlings were assayed for ethylene insensitivity using the triple response assay (Guzman and Ecker, 1990, cited above, with the following modifications) in which seeds were germinated on 0.5× MS media for 11 days in the dark in the presence of 10 ppm ethylene. Root and hypocotyl growth is inhibited by ethylene in ethylene sensitive but not in ethylene insensitive seedlings.
# [3] = tested on: tomato seedlings (WT, p1002-18, p1003-16); assay: Tomato seedling growth on 20 μM ACC and various levels of inducer; conditions: 20 μM ACC; for Hypocotyl (mm) / Root (mm): 10 day old seedlings
# Description: Homozygous tomato seeds from one p1002 containing and one p1003 containing line were germinated on medium containing 20 μM ACC and various levels of inducer (i.e., 0.5-20 μM).
# [4] = tested on: tomato seedlings (WT, p1002-18, p1003-16); assay: Tomato seedling growth on 20 μM inducer and various levels of ACC; conditions: 20 μM inducer; for Hypocotyl (mm) / Root (mm): 14 day old seedlings
# [5] = tomato line p1002-4 (first line so labelled, r8)
# [6] = tomato line p1002-4 (second line so labelled, r13)
# [7] = Arabidopsis, presence of inducer, 10 ppm ethylene
# [8] = Ein2-5 seedlings, 20 μM inducer, 10 ppm ethylene, dark
# [9] = WT seedlings, 20 μM inducer, 10 ppm ethylene, dark
# [10] = p1002-1-4 seedlings, 20 μM inducer, 10 ppm ethylene, dark
# [11] = p1002-3-4 seedlings, 20 μM inducer, 10 ppm ethylene, dark
# [12] = p1002-11-3 seedlings, 20 μM inducer, 10 ppm ethylene, dark
# [13] = p1002-23-2 seedlings, 20 μM inducer, 10 ppm ethylene, dark
# [14] = p1002-24-4 seedlings, 20 μM inducer, 10 ppm ethylene, dark
# [15] = p1002-18 tomato, Inducer 0.5 μM
# [16] = p1002-18 tomato, Inducer 2.5 μM
# [17] = p1003-16 tomato, Inducer 0.5 μM
# [18] = p1003-16 tomato, Inducer 2.5 μM
smiles,measurement,setting,value
"CCC(N(NC(=O)c1ccc2c(c1C)O[C@@H](CO)CO2)C(=O)c1cc(C)cc(C)c1)C(C)(C)C (stereo partly drawn) [inducer, 3,5 Dimethyl-benzoic acid N-(1-ethyl-2,2-dimethyl-propyl)-N′-(3S-hydroxymethyl-5-methyl-2,3-dihydro-benzo[1,4]dioxine-6-carbonyl)hydrazide]",Hypocotyls (mm),[1]; WT tomato,11.2 ± 3.18 mm
same,Root (mm),[1]; WT tomato,11.2 ± 3.18 mm
same,Hypocotyls (mm),[1]; [5],32.7 ± 16.8 mm
same,Root (mm),[1]; [5],42.2 ± 16.3 mm
same,Hypocotyls (mm),[1]; [6],33.9 ± 6.02 mm
same,Root (mm),[1]; [6],29.8 ± 21.4 mm
same,Hypocotyls (mm),[1]; tomato line p1002-7,36.2 ± 8.42 mm
same,Root (mm),[1]; tomato line p1002-7,44.5 ± 7.71 mm
same,Hypocotyls (mm),[1]; tomato line p1002-9,29.9 ± 7.85 mm
same,Root (mm),[1]; tomato line p1002-9,35.0 ± 16.0 mm
same,Hypocotyls (mm),[1]; tomato line p1002-16,39.6 ± 9.62 mm
same,Root (mm),[1]; tomato line p1002-16,19.5 ± 16.3 mm
same,Hypocotyls (mm),[1]; tomato line p1002-18,35.4 ± 8.82 mm
same,Root (mm),[1]; tomato line p1002-18,35.4 ± 8.82 mm
same,ethylene insensitivity (elongated hypocotyls with no apical hook),"[1]; tomato p1002 and p1003 lines, growth on ACC in the presence of inducer",resulted in a state of ethylene insensitivity
same,root length of most p1002 transformants versus wild-type or ein2 mutant seedlings,"[2]; Arabidopsis, inducer in the presence of silver, 10 ppm ethylene",not significantly longer
same,effect on hypocotyls of p1002 transformants,[2]; [7],No effect was observed
same,root length of p1002 transformants relative to wild-type seedlings,[2]; [7],significantly longer
same,Roots (mm) Avg,"[2]; Ein2-5 seedlings, 20 μM inducer + 5 μM AgNO3, 10 ppm ethylene, dark",12.4 mm
same,Hypocotyls (mm) Avg,[2]; [8],~30 mm
same,Roots (mm) Avg,[2]; [8],19.9 mm
same,Roots (mm) Avg,"[2]; WT seedlings, 20 μM inducer + 5 μM AgNO3, 10 ppm ethylene, dark",13.9 mm
same,Hypocotyls (mm) Avg,[2]; [9],12 mm
same,Roots (mm) Avg,[2]; [9],3.92 mm
same,Roots (mm) Avg,"[2]; p1002-1-4 seedlings, 20 μM inducer + 5 μM AgNO3, 10 ppm ethylene, dark",11.8 mm
same,Hypocotyls (mm) Avg,[2]; [10],12.3 mm
same,Roots (mm) Avg,[2]; [10],5.8 mm
same,Roots (mm) Avg,"[2]; p1002-3-4 seedlings, 20 μM inducer + 5 μM AgNO3, 10 ppm ethylene, dark",17.4 mm
same,Hypocotyls (mm) Avg,[2]; [11],12.7 mm
same,Roots (mm) Avg,[2]; [11],6.7 mm
same,Roots (mm) Avg,"[2]; p1002-11-3 seedlings, 20 μM inducer + 5 μM AgNO3, 10 ppm ethylene, dark",11.7 mm
same,Hypocotyls (mm) Avg,[2]; [12],12.1 mm
same,Roots (mm) Avg,[2]; [12],5.6 mm
same,Roots (mm) Avg,"[2]; p1002-23-2 seedlings, 20 μM inducer + 5 μM AgNO3, 10 ppm ethylene, dark",10.5 mm
same,Hypocotyls (mm) Avg,[2]; [13],12.1 mm
same,Roots (mm) Avg,[2]; [13],6.04 mm
same,Roots (mm) Avg,"[2]; p1002-24-4 seedlings, 20 μM inducer + 5 μM AgNO3, 10 ppm ethylene, dark",13.1 mm
same,Hypocotyls (mm) Avg,[2]; [14],12.2 mm
same,Roots (mm) Avg,[2]; [14],4.96 mm
same,"ethylene insensitivity, based on increased shoot length and/or altered root growth compared to non-induced transgenic plants","[2]; transgenic Arabidopsis with etr1-1 cassettes, 20 μM inducer, ethylene, dark, 4-8 days",demonstrated ethylene insensitivity
same,Hypocotyl (mm),"[3]; WT tomato, Inducer 20 μM",6.24 ± 2.75 mm
same,Root (mm),"[3]; WT tomato, Inducer 20 μM",9.06 ± 14.8 mm
same,Hypocotyl (mm),[3]; [15],8.40 ± 6.29 mm
same,Root (mm),[3]; [15],12.0 ± 13.3 mm
same,Hypocotyl (mm),"[3]; p1002-18 tomato, Inducer 1 μM",11.1 ± 7.41 mm
same,Root (mm),"[3]; p1002-18 tomato, Inducer 1 μM",16.5 ± 16.6 mm
same,Hypocotyl (mm),[3]; [16],13.5 ± 8.97 mm
same,Root (mm),[3]; [16],16.0 ± 16.6 mm
same,Hypocotyl (mm),"[3]; p1002-18 tomato, Inducer 5 μM",14.5 ± 7.75 mm
same,Root (mm),"[3]; p1002-18 tomato, Inducer 5 μM",15.2 ± 8.39 mm
same,Hypocotyl (mm),"[3]; p1002-18 tomato, Inducer 10 μM",19.8 ± 10.8 mm
same,Root (mm),"[3]; p1002-18 tomato, Inducer 10 μM",22.7 ± 13.5 mm
same,Hypocotyl (mm),"[3]; p1002-18 tomato, Inducer 20 μM",26.3 ± 11.9 mm
same,Root (mm),"[3]; p1002-18 tomato, Inducer 20 μM",33.3 ± 12.8 mm
same,Hypocotyl (mm),[3]; [17],17.0 ± 6.46 mm
same,Root (mm),[3]; [17],14.4 ± 15.3 mm
same,Hypocotyl (mm),"[3]; p1003-16 tomato, Inducer 1 μM",20.9 ± 10.7 mm
same,Root (mm),"[3]; p1003-16 tomato, Inducer 1 μM",10.3 ± 12.7 mm
same,Hypocotyl (mm),[3]; [18],20.1 ± 8.77 mm
same,Root (mm),[3]; [18],9.19 ± 8.98 mm
same,Hypocotyl (mm),"[3]; p1003-16 tomato, Inducer 5 μM",23.6 ± 11.4 mm
same,Root (mm),"[3]; p1003-16 tomato, Inducer 5 μM",20.2 ± 14.9 mm
same,Hypocotyl (mm),"[3]; p1003-16 tomato, Inducer 10 μM",25.9 ± 8.77 mm
same,Root (mm),"[3]; p1003-16 tomato, Inducer 10 μM",29.1 ± 12.4 mm
same,Hypocotyl (mm),"[3]; p1003-16 tomato, Inducer 20 μM",27.5 ± 9.10 mm
same,Root (mm),"[3]; p1003-16 tomato, Inducer 20 μM",25.6 ± 11.4 mm
same,relation of inducer concentration to level of ethylene insensitivity,"[3]; tomato p1002 and p1003 line, inducer 0.5-20 μM",directly related to the level of ethylene insensitivity
same,Hypocotyl (mm),"[4]; WT tomato, 5 μM Ag",41.4 ± 8.20 mm
same,Root (mm),"[4]; WT tomato, 5 μM Ag",22.3 ± 5.66 mm
same,Hypocotyl (mm),"[4]; WT tomato, ACC 0 μM",36.4 ± 9.44 mm
same,Root (mm),"[4]; WT tomato, ACC 0 μM",28.8 ± 6.26 mm
same,Hypocotyl (mm),"[4]; WT tomato, ACC 1 μM",25.9 ± 12.7 mm
same,Root (mm),"[4]; WT tomato, ACC 1 μM",14.4 ± 9.42 mm
same,Hypocotyl (mm),"[4]; WT tomato, ACC 2.5 μM",11.3 ± 6.25 mm
same,Root (mm),"[4]; WT tomato, ACC 2.5 μM",12.3 ± 9.41 mm
same,Hypocotyl (mm),"[4]; WT tomato, ACC 5 μM",8.50 ± 4.35 mm
same,Root (mm),"[4]; WT tomato, ACC 5 μM",10.4 ± 8.73 mm
same,Hypocotyl (mm),"[4]; WT tomato, ACC 10 μM",7.71 ± 1.20 mm
same,Root (mm),"[4]; WT tomato, ACC 10 μM",13.1 ± 10.8 mm
same,Hypocotyl (mm),"[4]; WT tomato, ACC 20 μM",3.21 ± 1.19 mm
same,Root (mm),"[4]; WT tomato, ACC 20 μM",11.2 ± 9.40 mm
same,Hypocotyl (mm),"[4]; p1002-18 tomato, 5 μM Ag",38.2 ± 6.85 mm
same,Root (mm),"[4]; p1002-18 tomato, 5 μM Ag",31.6 ± 5.68 mm
same,Hypocotyl (mm),"[4]; p1002-18 tomato, ACC 0 μM",40.7 ± 9.50 mm
same,Root (mm),"[4]; p1002-18 tomato, ACC 0 μM",30.9 ± 7.14 mm
same,Hypocotyl (mm),"[4]; p1002-18 tomato, ACC 1 μM",28.4 ± 18.0 mm
same,Root (mm),"[4]; p1002-18 tomato, ACC 1 μM",24.7 ± 7.53 mm
same,Hypocotyl (mm),"[4]; p1002-18 tomato, ACC 2.5 μM",29.4 ± 15.0 mm
same,Root (mm),"[4]; p1002-18 tomato, ACC 2.5 μM",25.8 ± 8.50 mm
same,Hypocotyl (mm),"[4]; p1002-18 tomato, ACC 5 μM",27.3 ± 9.03 mm
same,Root (mm),"[4]; p1002-18 tomato, ACC 5 μM",24.0 ± 7.77 mm
same,Hypocotyl (mm),"[4]; p1002-18 tomato, ACC 10 μM",28.0 ± 14.1 mm
same,Root (mm),"[4]; p1002-18 tomato, ACC 10 μM",24.8 ± 6.03 mm
same,Hypocotyl (mm),"[4]; p1002-18 tomato, ACC 20 μM",26.5 ± 15.1 mm
same,Root (mm),"[4]; p1002-18 tomato, ACC 20 μM",24.1 ± 3.98 mm
same,Hypocotyl (mm),"[4]; p1003-16 tomato, 5 μM Ag",36.3 ± 9.08 mm
same,Root (mm),"[4]; p1003-16 tomato, 5 μM Ag",23.8 ± 4.92 mm
same,Hypocotyl (mm),"[4]; p1003-16 tomato, ACC 0 μM",39.8 ± 17.1 mm
same,Root (mm),"[4]; p1003-16 tomato, ACC 0 μM",18.7 ± 3.94 mm
same,Hypocotyl (mm),"[4]; p1003-16 tomato, ACC 1 μM",39.3 ± 11.0 mm
same,Root (mm),"[4]; p1003-16 tomato, ACC 1 μM",18.2 ± 716 mm
same,Hypocotyl (mm),"[4]; p1003-16 tomato, ACC 2.5 μM",38.9 ± 18.2 mm
same,Root (mm),"[4]; p1003-16 tomato, ACC 2.5 μM",12.9 ± 8.61 mm
same,Hypocotyl (mm),"[4]; p1003-16 tomato, ACC 5 μM",33.0 ± 15.2 mm
same,Root (mm),"[4]; p1003-16 tomato, ACC 5 μM",12.9 ± 9.36 mm
same,Hypocotyl (mm),"[4]; p1003-16 tomato, ACC 10 μM",29.7 ± 18.8 mm
same,Root (mm),"[4]; p1003-16 tomato, ACC 10 μM",12.7 ± 12.1 mm
same,Hypocotyl (mm),"[4]; p1003-16 tomato, ACC 20 μM",24.3 ± 15.2 mm
same,Root (mm),"[4]; p1003-16 tomato, ACC 20 μM",13.0 ± 7.92 mm
same,induction of ethylene insensitivity over ACC concentrations,"[4]; tomato p1002 and p1003 line, ACC 1.0-20 μM",induction of ethylene insensitivity occurred across the range of ACC concentrations tested

# — patent US8168860B2, “Compositions and methods for the modification of physiological responses in plants” (Rohm and Haas Company, priority 2007, dated 2012)
